Laboratory results as given in ChEMBL document CHEMBL1201862, “PubChem BioAssay data set” (2004).
Calls of active or inactive are those of the source. Rule as the data show it: actives have a measured IC50 and inactives only a lower limit.

Target: Envelope glycoprotein gp160 (Human immunodeficiency virus 1, UniProt Q6QLK5)
Test: cell-free HIV fusion peptide-binding blockers – biochemical, uHTS, fluorescence dequenching, […] (AID 1986)

Chain of Envelope glycoprotein gp160 (Q6QLK5 whole entry, the tested form may be a part): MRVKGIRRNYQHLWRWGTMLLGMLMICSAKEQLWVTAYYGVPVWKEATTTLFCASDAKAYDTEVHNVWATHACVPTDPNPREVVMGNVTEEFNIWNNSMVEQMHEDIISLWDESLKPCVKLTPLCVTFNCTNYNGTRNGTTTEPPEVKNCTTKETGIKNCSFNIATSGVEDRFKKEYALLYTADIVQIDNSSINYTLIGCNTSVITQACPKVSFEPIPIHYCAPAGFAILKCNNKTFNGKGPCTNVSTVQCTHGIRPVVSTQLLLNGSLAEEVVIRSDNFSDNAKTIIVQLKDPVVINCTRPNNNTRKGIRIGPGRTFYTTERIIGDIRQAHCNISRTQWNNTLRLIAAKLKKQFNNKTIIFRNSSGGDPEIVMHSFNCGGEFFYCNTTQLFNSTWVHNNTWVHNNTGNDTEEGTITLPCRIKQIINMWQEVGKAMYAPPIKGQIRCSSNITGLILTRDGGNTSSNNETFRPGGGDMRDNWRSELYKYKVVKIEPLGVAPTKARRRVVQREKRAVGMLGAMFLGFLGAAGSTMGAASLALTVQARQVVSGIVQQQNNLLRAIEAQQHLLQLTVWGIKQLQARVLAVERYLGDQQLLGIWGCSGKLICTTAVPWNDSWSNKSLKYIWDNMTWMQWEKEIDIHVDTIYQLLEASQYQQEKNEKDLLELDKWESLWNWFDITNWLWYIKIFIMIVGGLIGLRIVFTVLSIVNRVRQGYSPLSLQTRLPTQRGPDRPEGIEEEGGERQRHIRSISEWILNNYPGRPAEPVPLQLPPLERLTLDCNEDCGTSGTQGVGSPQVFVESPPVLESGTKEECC

| Structure (SMILES) | IC50 |
| --- | --- |
| CC(/C=C1\SC(=S)N(CCCC(=O)Nc2ccc(C(=O)O)cc2)C1=O)=C\c1ccccc1 | 17.2 µM (active) |
| CCCCN1C(=O)/C(=C/C=C/c2ccco2)C(=O)NC1=S | 5.14 µM (active) |
